Where “and” joins values, the source holds several entries; their conditions need not be identical. Equal values may be shown once. Read-outs that look alike come from different tables or passages of the source. Marks after values point to notes of the source that are not given here.
How the values were obtained:
tumor cell lines = experiment: cells; assay type: cell-based
Description: (§1) Cells lines with previously known mechanisms of resistance. […] Res. 8: 207-218,1996); KB-3-1 (parental derived from an epidermoid carcinoma), KB-8.5, KB-V1 (Akiyama S-I, Fojo A, Hanover J A, Pastan I, Gottesman M M. Isolation and genetic characterization of human KB cell lines resistant to multiple drugs. Somatic Cell Mol. Gen., 11: 117-126,1985; Shen D-W, Cardarelli C, Hwang J, Cornwell M, Richert N, Ishii S, Pastan I, Gottesman MM. […] J. Biol. Chem., 261: 7762-7770, 1986); and HL-60 (parental derived from human leukemia) and HL60/AR (McGrath T., Center M. S. Adriamycin resistance in HL60 cells in the absence of detectable P-glycoprotein. Biochem. Res. Commun., 145:1171-1176,1987); A549 and A549.EpoB40 (He L., Yang C.-P.H., Horwitz S. B. Mutations in p-tubulin map to domains involved in regulation of microtubule stability in epothilone-resistant cell lines. Molecular Cancer Therapeutics. 1: 3-10, 2001). HCT-15 human colon carcinoma and DLD-1 human colon carcinoma are obtained from American Tissue Culture Collection. The MX-1W carcinoma is a Wyeth variant orginally obtained as MX-1 breast carcinoma from the National Cancer Institute. Cell lines selected for resistance to Representative Example 129. KB-3-1 cells are selected for resistance to Example 129 by chronically exposing cells to increasing concentrations of Example 129.
(§2) 2.2. Cell Survival Assay: Standard Pharmacological Test Procedure. The concentration of candidate inhibitor required to inhibit 50% of cell growth (IC50) is done according to previously reported methods. […] Compounds are serially diluted into media as 2× stocks and 100 μl added to cells in duplicate. Compounds are incubated with cells for 3 days. At the end of the incubation period the sulforhodamine B (SRB) assay, which measures protein content as an assessment of cell survival, is performed as described previously (Skehan P, Storeng R, Scudiero D, Monks A, McMahon J, Vistica D, Warren J T, Bokesch H, Kenney S, Boyd MR. New calorimetric cytotoxicity assay for anticancer-drug screening. J Natl Cancer Inst 1990 Jul 4;82(13):1107-12) with some modification as follows. For KB-3-1 cells with 20% FCS, media is gently decanted and replaced with 200 μl of serum-free media mixed with cold 50% TCA for a final concentration of 10% TCA. The plates are incubated for 1 hr at 4° C., followed by washing 5 times in cold distilled water, then air dried overnight. The fixed cells are stained for 10 min with 80 μl of 0.04% SRB solution prepared in 1% glacial acetic acid. Stain is discarded and plates washed 5 times in 1% glacial acetic acid, then air-dried until completely dry. Stained cell product is dissolved in 150 μl of 10 mM Trizma Base and placed on a shaker for 20 minutes until fully dissolved. Absorbance is read on a Victor V multi-label plate reader (Perkin Elmer, Gaithersburg, Md.).

BT474 = experiment: Cell survival assay (SRB), BT474; assay type: cell-based; details: Homo sapiens, BT-474, 72 h
Description: (§3) 2.2. Cell Survival Assay: Standard Pharmacological Test Procedure. […] Compounds are incubated with cells for 3 days.

MX-1W = experiment: Cell survival assay (SRB), MX-1W; assay type: cell-based; details: Homo sapiens, MX1W, 72 h, 3 days
Description: as §1, §2

DLD-1 = experiment: Cell survival assay (SRB), DLD-1; assay type: cell-based; details: Homo sapiens, DLD-1, 72 h, 3 days
Description: as §1, §2

HCT-116 = experiment: Cell survival assay (SRB), HCT-116; assay type: cell-based; details: Homo sapiens
Description: as §3

NCI-H1299 = experiment: Cell survival assay (SRB), NCI-H1299; assay type: cell-based; details: Homo sapiens
Description: as §3

SK-MES-1 = experiment: Cell survival assay (SRB), SK-MES-1; assay type: cell-based; details: Homo sapiens
Description: as §3

SKOV3 = experiment: Cell survival assay (SRB), SKOV3; assay type: cell-based; details: Homo sapiens, SK-OV-3, 72 h
Description: as §3

Panc1 = experiment: Cell survival assay (SRB), Panc1; assay type: cell-based; details: Homo sapiens, PANC-1, 72 h
Description: as §3

PC3MM2 = experiment: Cell survival assay (SRB), PC3MM2; assay type: cell-based; details: Homo sapiens
Description: as §3

A498 = experiment: Cell survival assay (SRB), A498; assay type: cell-based; details: Homo sapiens
Description: as §3

A549.EpoB40 = assay type: cell-based; details: vs A549; below 1 = sensitive
Description: as §1
as §2, with “Stained cell product is dissolved in 150 μl of 10 mM Trizma Base and placed on a shaker for 20 minutes until fully dissolved.” left out

DLD-1 tumor = experiment: Growth of tumors in nude mice, DLD-1 xenograft; assay type: in vivo; details: days 1,5,9
Description: (§4) 2.4. Growth of Tumors in Nude Mice.

MX-1W tumor = experiment: Growth of tumors in nude mice, MX-1W xenograft; assay type: in vivo; details: for % T/C on day 7 / % T/C on day 14: MX-1W, days 1,5,9; for Activity in nude mice animal model (% T/C @ MTD on days 11-15) MX-1W: staged MX-1W xenograft, at MTD
Description: as §4

KB-8-5 (MDR1+) = experiment: Cell survival assay (SRB), KB-8-5 (MDR1+); details: for IC50: Homo sapiens
[1] = HL60/AR (MRP1) or S1-M1-3.2 (MXR)

SMILES: CC(=O)O[C@H]1C(=O)[C@@]2(C)[C@H]([C@H](OC(=O)c3ccccc3)[C@]3(O)C[C@H](OC(=O)[C@H](O)[C@@H](NC(=O)c4ccccc4)c4ccccc4)C(C)=C1C3(C)C)[C@]1(OC(C)=O)CO[C@@H]1C[C@@H]2O [paclitaxel, reference compound]
- IC50 (tumor cell lines; 34 tumor cell lines (Example 129); N=31 cell lines (paclitaxel); read-out: mean IC50): 80.2 nM
- IC50 (tumor cell lines; 34 tumor cell lines (Example 129); N=31 cell lines (paclitaxel); read-out: median IC50): 9 nM
- IC50 (tumor cell lines; 34 tumor cell lines (Example 129); N=31 cell lines (paclitaxel); read-out: range of IC50): 1.8 to 1590 nM
- IC50 (tumor cell lines; 72 h, average over the panel of tumor cell lines of Table 1; 3 days; read-out: AVERAGE IC50): 80.2 nM
- resistance detected in cells over-expressing MRP1 or MXR (tumor cell lines; [1]): no resistance
- IC50 (tumor cell lines; MX-1W, NCI-H1299, DLD-1, HCT-15; read-out: IC50 in cell lines expressing moderate to very high MDR1): 15 to 438 nM
- IC50 (tumor cell lines; NCI-H838, A549, HT-29, HCT-116, KB-3-1; read-out: IC50 in cell lines with undetectable or low level MDR1): 3.9 to 8.8 nM
- IC50 (BT474; BT474, breast, 3 days, SRB staining, read-out: IC50): 10 nM
- IC50 (MX-1W; MX-1W, breast, SRB staining, read-out: IC50): 15.4 ± 2.9 nM
- IC50 (MX-1W; MX-1W, SRB, + 5.0 uM 7-(6,7-dimethoxy-3,4-dihydro-1H-isoquinolin-2-yl)-2(3,4-dimethoxy-phenyl)-2-p-tolysulfanyl-heptanenitrile, read-out: IC50 + 5.0 uM MDR-1 inhibitor): 8.3 nM
- IC50 (MX-1W; MX-1W, SRB, vehicle control (DMSO), no MDR-1 inhibitor, read-out: IC50): 138 nM
- IC50 (DLD-1; DLD-1, colon, SRB staining, read-out: IC50): 30.8 ± 12.7 nM
- IC50 (DLD-1; DLD-1, SRB, + 5.0 uM MDR-1 inhibitor (heptanenitrile of Table 2), read-out: IC50 + 5.0 uM MDR-1 inhibitor): 3.8 nM
- IC50 (DLD-1; DLD-1, SRB, vehicle control (DMSO), no MDR-1 inhibitor, read-out: IC50): 21.8 nM
- IC50 (HCT-116; 72 h, HCT-116, colon, 3 days, SRB staining, read-out: IC50): 4.5 nM
- IC50 (NCI-H1299; 72 h, NCI-H1299, NSCLC, 3 days, SRB staining, read-out: IC50): 37.7 ± 12.6 nM
- IC50 (SK-MES-1; 72 h, SK-MES-1, NSCLC, 3 days, SRB staining, read-out: IC50): 29 nM
- IC50 (SKOV3; SKOV3, ovarian, 3 days, SRB staining, read-out: IC50): 9 nM
- IC50 (Panc1; Panc1, pancreatic, 3 days, SRB staining, read-out: IC50): 28.9 nM
- IC50 (PC3MM2; 72 h, PC3MM2, prostate, 3 days, SRB staining, read-out: IC50): 8.7 nM
- IC50 (A498; 72 h, A498, renal, 3 days, SRB staining, read-out: IC50): 27.5 nM
- resistance of A549.EpoB40 cells (A549.EpoB40): 13 fold
- % T/C on day 7 (DLD-1 tumor; paclitaxel 60 mg/kg IV): 71%
- % T/C on day 14 (DLD-1 tumor; paclitaxel 60 mg/kg IV): 73%
- % T/C on day 7 (MX-1W tumor; paclitaxel 60 mg/kg IV): 76%
- % T/C on day 14 (MX-1W tumor; paclitaxel 60 mg/kg IV): 77%
- Activity in nude mice animal model (% T/C @ MTD on days 11-15) MX-1W (MX-1W tumor): 73%
- IC50 (KB-8-5 (MDR1+); MDR1, 72 h, KB-85, 3 days, SRB, vehicle (DMSO), no MDR-1 inhibitor, mean of two experiments): 41.9 nM
- IC50 (KB-8-5 (MDR1+); MDR1, 72 h, read-out: IC50 + 5.0 uM MDR-1 inhibitor, KB-85, 3 days, SRB, + 5.0 uM MDR-1 inhibitor (heptanenitrile), mean of two experiments): 4.4 nM
- IC50 (KB-8-5 (MDR1+); MDR1, read-out: KB-8-5 (MDR1+) IC50, nM (N), KB-8-5, moderate MDR1 expression, Table 3): 63.3 ± 29 nM
- resistance of KB-8-5 cells (KB-8-5 (MDR1+); KB-8-5 (KB-85) vs KB-3-1, in vitro): 19 fold and 14 fold

SMILES: CN[C@H](C(=O)N[C@H](C(=O)N(C)[C@H](/C=C(\C)C(=O)O)C(C)C)C(C)(C)C)C(C)(C)c1ccccc1 [Example 129, N,β,β-trimethyl-L-phenylalanyl-N^1-[(1S,2E)-3-carboxy-1-isopropylbut-2-enyl]-N^1,3-dimethyl-L-valinamide]
- IC50 (tumor cell lines; 72 h, read-out: AVERAGE IC50 (nM), average over the panel of tumor cell lines of Table 1; 3 days): 2.1 ± 1.7 nM
- resistance detected in cells over-expressing MRP1 or MXR (tumor cell lines; [1]): no resistance
- IC50 (tumor cell lines; read-out: IC50 in cell lines expressing moderate to very high MDR1, MX-1W, NCI-H1299, DLD-1, HCT-15): 1.1 to 6.8 nM
- IC50 (tumor cell lines; read-out: IC50 in cell lines with undetectable or low level MDR1, NCI-H838, A549, HT-29, HCT-116, KB-3-1): 0.7 to 1.6 nM
- IC50 (tumor cell lines; read-out: mean IC50, 34 tumor cell lines (Example 129); N=31 cell lines (paclitaxel)): 2.1 ± 1.7 nM
- IC50 (tumor cell lines; read-out: median IC50, 34 tumor cell lines (Example 129); N=31 cell lines (paclitaxel)): 1.7 nM
- IC50 (tumor cell lines; read-out: range of IC50, 34 tumor cell lines (Example 129); N=31 cell lines (paclitaxel)): 0.2 to 7.3 nM
- IC50 (tumor cell lines; read-out: range of IC50; 34 tumor cell lines (Example 129); N=31 cell lines (paclitaxel)): 0.2 to 7 nM
- IC50 (BT474): 2.5 ± 1.6 nM
- IC50 (MX-1W; MX-1W, breast, SRB staining): 1.8 ± 0.6 nM
- IC50 (MX-1W; MX-1W, SRB, vehicle control (DMSO), no MDR-1 inhibitor): 1.4 nM
- IC50 (MX-1W; read-out: IC50 + 5.0 uM MDR-1 inhibitor, MX-1W, SRB, + 5.0 uM 7-(6,7-dimethoxy-3,4-dihydro-1H-isoquinolin-2-yl)-2(3,4-dimethoxy-phenyl)-2-p-tolysulfanyl-heptanenitrile): 1.3 nM
- IC50 (DLD-1; DLD-1, colon, SRB staining): 1.1 ± 0.4 nM
- IC50 (DLD-1; DLD-1, SRB, vehicle control (DMSO), no MDR-1 inhibitor): 1.2 nM
- IC50 (DLD-1; read-out: IC50 + 5.0 uM MDR-1 inhibitor, DLD-1, SRB, + 5.0 uM MDR-1 inhibitor (heptanenitrile of Table 2)): 1.1 nM
- IC50 (HCT-116; HCT-116, 72 h): 0.7 ± 0.2 nM
- IC50 (NCI-H1299; NCI-H1299, 72 h): 6.8 ± 6.1 nM
- IC50 (SK-MES-1; SK-MES-1, 72 h): 2.6 nM
- IC50 (SKOV3): 1.7 nM
- IC50 (Panc1): 2.9 ± 0.1 nM
- IC50 (PC3MM2; PC3MM2, 72 h): 1.9 ± 0.1 nM
- IC50 (A498; A498, 72 h): 0.8 nM
- resistance of A549.EpoB40 cells (A549.EpoB40): 0.6 fold
- % T/C on day 7 (DLD-1 tumor; Example 129 1.6 mg/kg IV): 22** %
- % T/C on day 14 (DLD-1 tumor; Example 129 1.6 mg/kg IV): 20** %
- % T/C on day 21 (DLD-1 tumor; Example 129 1.6 mg/kg IV): 44%
- % T/C on day 7 (MX-1W tumor; Example 129 1.6 mg/kg IV): 14** %
- % T/C on day 14 (MX-1W tumor; Example 129 1.6 mg/kg IV): 3** %
- effect on growth of MX-1W tumor (MX-1W tumor; orally administered): inhibited the growth
- Activity in nude mice animal model (% T/C @ MTD on days 11-15) MX-1W (MX-1W tumor): 6%
- RR, relative resistance (KB-8-5 (MDR1+)): 2.4
- Ratio KB85/KB (KB-8-5 (MDR1+)): 2.4
- resistance of KB-8-5 cells (KB-8-5 (MDR1+)): 2.4-5 fold
- IC50 (KB-8-5 (MDR1+); MDR1, 72 h): 1.9 nM
- IC50 (KB-8-5 (MDR1+); MDR1, 72 h, read-out: IC50 + 5.0 uM MDR-1 inhibitor): 1.4 nM
- IC50 (KB-8-5 (MDR1+); MDR1, read-out: KB-8-5 (MDR1+) IC50, nM (N)): 2.3 nM
